Laboratory results: patent publication US20200360331A1, “COMPOSITIONS COMPRISING 15-HEPE AND/OR 15-HETrE AND METHODS OF TREATING OR PREVENTING CARDIOMETABOLIC DISEASE, METABOLIC SYNDROME, AND/OR RELATED DISEASES” (Afimmune Limited, priority 2019, published 2020)
Entries after “also recorded” stand apart in the source; their conditions may differ.

Experiments:
UUO mice = experiment: UUO study: kidney hydroxyproline content; format: in vivo, C57BL/6 mice
Protocol: UUO Surgery: On day 0 of the study, UUO surgery was performed on mice under pentobarbital sodium anesthesia. The mouse's hair was first shaved and then abdomen cut open to exteriorize the mouse's left ureter. The ureter was ligated 4-0 nylon sutures at two points. The mouse's peritoneum and skin were then closed with sutures, and the mouse transferred to a clean cage until recovered from the anesthesia. Sham operated mice had their left ureter exposed but not ligated.
Measurement of Kidney Biochemistry: To quantify kidney hydroxyproline content, frozen left kidney samples were processed by an alkaline-acid hydrolysis method as follows: kidney samples were dissolved in 2 normal (N) sodium hydroxide (NaOH) at 65° C. and autoclaved at 121° C. for 20 minutes. The lysed samples (400 μL) were acid-hydrolyzed with 400 μL of 6N hydrochloride acid (HCl) at 121° C. for 20 minutes, and neutralized with 400 μL of 4N NaOH containing 10 mg/mL of activated carbon. An AC buffer (e.g., 2.2M acetic acid/0.48M citric acid, 400 μL) was added to the samples, followed by centrifugation to collect the supernatant. A standard curve of hydroxyproline was constructed with serial dilutions of trans-4-hydroxy-L-proline (Sigma-Aldrich, USA) starting at 16 μg/mL. The prepared samples and standards (e.g., each 400 μL) were mixed with 400 μL chloramine T solution (Wako Pure Chemical Industries, Japan) and incubated for 25 minutes at room temperature. The samples were then mixed with Ehrlich's solution (e.g., 400 μL) and heated at 65° C. for 20 minutes to develop the color. After samples were cooled on ice and centrifuged to remove precipitates, the optical density of each supernatant was measured at 560 nanometers (nm). The concentrations of hydroxyproline were calculated from the hydroxyproline standard curve. Protein concentrations of kidney samples were determined using a bicinchoninic (BCA) protein assay kit (Thermo Fisher Scientific, USA) and used to normalize the calculated hydroxyproline values. Kidney hydroxyproline contents were expressed as microgram (μg) per mg protein.

TIMP-1 [1] = experiment: UUO study: quantitative RT-PCR of kidney, TIMP-1; format: in vivo, C57BL/6 mice; settings: UUO mice kidney
Protocol: (§1) Quantitative RT-PCR: Total ribonucleic acid (RNA) was extracted from kidney samples using RNAiso (Takara Bio, Japan) according to the manufacturer's instructions. One μg of RNA was reverse-transcribed using a reaction mixture containing 4.4 micromolar (mM) of magnesium chloride (MgCl2) (F. Hoffmann-La Roche, Switzerland), 40 U RNase inhibitor (Toyobo, Japan), 0.5 mM dNTP (Promega, USA), 6.28 μM random hexamer (Promega), 5× first strand buffer (Promega), 10 mM dithiothreitol (Invitrogen, USA) and 200 U MMLV-RT (Invitrogen) in a final volume of 20 μL. The reaction was carried out for 1 hour at 37° C., followed by 5 minutes at 99° C. Real-time PCR was performed using real-time PCR DICE and TB Green™ Premix Ex Taq™ II (Takara Bio). To calculate the relative microRNA (mRNA) expression level, the expression of each gene (e.g., α-SMA, TIMP-1, TGF-β and Collagen Type 1) was normalized to that of reference gene 36B4 (gene symbol: Rplp0). Information regarding the PCR-primer sets and the plate layout are described in Tables 1 and 2.

TGF-β [2] = experiment: UUO study: quantitative RT-PCR of kidney, TGF-β; format: in vivo, C57BL/6 mice; settings: UUO mice kidney
Protocol: as §1

BDL-operated mice = experiment: BDL study: serum biochemistry (ALT, total bilirubin); format: in vivo, C57BL/6J mice; settings: for Serum ALT / Serum Total Bilirubin: BDL mice
Protocol: BDL Surgery: On Day 0 of the study, BDL surgery was performed under pentobarbital (Kyoritsu Seiyaku, Japan) anesthesia. The mouse's hair was first shaved, the abdominal cavity cut open, and the common bile duct was ligated twice with 7-0 surgical silk. The mouse's peritoneum and the skin were closed with sutures, and the mice were transferred to a clean cage (e.g., resting cage) until recovered from anesthesia. Sham operated mice had their common bile duct exposed but not ligated.
Sample Collection: For serum samples, non-fasting blood was collected in serum separate tubes without anticoagulant through direct cardiac puncture and centrifuged at 3,500×g for 4 minutes at 4° C. The supernatant was collected and stored at −80° C. for biochemistry (30 μL) and shipping (all the remaining). For liver samples, left lateral lobe was collected and cut into 6 pieces. Two pieces of left lateral lobe were fixed in Bouin's solution and then embedded in paraffin. Samples were stored at room temperature for histological analysis. The other 2 pieces of left lateral lobe were embedded in O.C.T. compound and quick frozen in liquid nitrogen. Samples were stored at −80° C. The remaining pieces of left lateral lobe was snap frozen in liquid nitrogen and stored at −80° C. for gene expression analyses. Right medial lobe, left medial lobe, right lobe and caudate lobe were snap frozen in liquid nitrogen and stored at −80° C. for shipping.

TIMP-1 [3] = experiment: BDL study: quantitative RT-PCR of liver, TIMP-1; format: in vivo, C57BL/6J mice; settings: BDL mice liver
Protocol: as §1, with “from liver” for “from kidney”, “4.4 mM” for “4.4 micromolar (mM) of”, “relative mRNA” for “relative microRNA (mRNA)”, “gene (α-SMA,” for “gene (e.g., α-SMA,”, “Tables 8” for “Tables 1”, “and 9.” for “and 2.”

TGF-β [4] = experiment: BDL study: quantitative RT-PCR of liver, TGF-β; format: in vivo, C57BL/6J mice; settings: BDL mice liver
Protocol: as §1, with “from liver” for “from kidney”, “4.4 mM” for “4.4 micromolar (mM) of”, “relative mRNA” for “relative microRNA (mRNA)”, “gene (α-SMA,” for “gene (e.g., α-SMA,”, “Tables 8” for “Tables 1”, “and 9.” for “and 2.”

[5] = 50 mg/kg PO QD Day 0-13, Day 14
[6] = 500 mg/kg PO QD Day 0-13, Day 14
[7] = relative mRNA normalized to 36B4, 50 mg/kg PO QD Day 0-13
[8] = relative mRNA normalized to 36B4, 500 mg/kg PO QD Day 0-13
[9] = 250 mg/kg PO QD Day 0-13, Day 14
[10] = BDL mice, 50, 250 and 500 mg/kg
[11] = relative mRNA normalized to 36B4, 250 mg/kg PO QD Day 0-13

CC/C=C\CC(O)/C=C/C=C\C/C=C\C/C=C\CCCC(=O)O (centres unmarked) [DS102, 15-hydroxy-eicosa-5Z,8Z,11Z,13E,17Z-pentaenoic acid]
kidney hydroxyproline contents compared with the Vehicle group (UUO mice; 50 mg/kg): significant decrease | Kidney hydroxyproline (UUO mice; [5]): 8.47 ± 2.08 μg/mg total protein | kidney hydroxyproline contents compared with the Vehicle group (UUO mice; 500 mg/kg): significant decreases | Kidney hydroxyproline (UUO mice; [6]): 8.59 ± 1.99 μg/mg total protein | TIMP-1 gene expression (TIMP-1 [1]; [7]): 138.30 ± 30.39 | TIMP-1 gene expression (TIMP-1 [1]; [8]): 124.80 ± 28.60 | TGF-β gene expression (TGF-β [2]; [7]): 4.31 ± 0.69 | TGF-β gene expression (TGF-β [2]; [8]): 5.37 ± 0.76 | Serum ALT (BDL-operated mice; [5]): 402 ± 112 U/L | Serum Total Bilirubin (BDL-operated mice; [5]): 26.8 ± 6.9 mg/dL | Serum ALT (BDL-operated mice; [9]): 351 ± 155 U/L | Serum Total Bilirubin (BDL-operated mice; [9]): 23.5 ± 9.8 mg/dL | Serum ALT (BDL-operated mice; [6]): 383 ± 147 U/L | Serum Total Bilirubin (BDL-operated mice; [6]): 26.2 ± 6.1 mg/dL | serum ALT level vs Vehicle group (BDL-operated mice; [10]): no significant differences | serum total bilirubin level vs Vehicle group (BDL-operated mice; [10]): no significant differences | TIMP-1 mRNA expression level compared with the Vehicle group (TIMP-1 [3]; 500 mg/kg): tended to decrease; also recorded: trend approaching significance | TIMP-1 mRNA expression level vs Vehicle group (TIMP-1 [3]; DS102 treatment groups): no significant differences | TIMP-1 gene expression (TIMP-1 [3]; [7]): 43.82 ± 26.19 | TIMP-1 gene expression (TIMP-1 [3]; [11]): 30.65 ± 16.80 | TIMP-1 gene expression (TIMP-1 [3]; [8]): 16.09 ± 10.16 | TGF-β mRNA expression level compared with the Vehicle group (TGF-β [4]; 500 mg/kg): significant decrease | TGF-β mRNA expression level vs Vehicle group (TGF-β [4]; DS102 treatment groups): no significant differences | TGF-β gene expression (TGF-β [4]; [7]): 1.48 ± 0.48 | TGF-β gene expression (TGF-β [4]; [11]): 1.50 ± 0.44 | TGF-β gene expression (TGF-β [4]; [8]): 1.00 ± 0.23
